TGI data for 27 compounds are collected here from PubChem BioAssay (NCI).

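Method: 48-hour compound exposure of cells in 96-well plates, five concentrations, linear interpolation of endpoints. Definition used: TGI = concentration required for complete inhibition of growth.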

In the first assay the test system is M14 melanoma. Put plainly: inhibition of tumour cell growth, NCI panel, 48 h.
`CCN(CCO)CC1COc2ccccc2O1` (stereo not given) yielded a TGI of more than 100 µM.

`C/C(CC1C2CCCC1C2)=N\NC(N)=O` (stereo not given) displayed a TGI of more than 100 µM.

The compound `c1ccc2sc(SCSc3nc4ccccc4s3)nc2c1` registered a TGI of more than 100 µM.

For the compound `O=c1oc(-c2ccc(O)c(O)c2)cc2cccc(O)c12`, the TGI stood at 51.8 µM.

The compound `O=C1/C(=C\c2cccc(Oc3ccccc3)c2)S(=O)(=O)C(c2ccccc2)N1Cc1ccccc1` (stereo not given) came in with a TGI of 76.6 µM.

`O=[N+]([O-])/C(C(Cl)=C(Cl)Cl)=C(\Nc1cccc2cccnc12)SCc1ccccc1`: the TGI stood at 74.3 µM.

`COc1ccc(C#CC(=O)O)c(OC)c1`: the TGI is more than 100 µM.

On to `Cc1cc2[nH]c3[nH]c(=O)[nH]c(=O)c3c2cc1C`, for which the TGI is more than 100 µM.

In turn, `C/C=C/C=C/c1nc(C#N)c(N)o1` came in with a TGI of more than 100 µM.

For `CC(C)COP(=O)(OCC(C)C)C(NS(=O)(=O)c1ccccc1)(C(F)(F)F)C(F)(F)F`, the TGI is 43.2 µM.

The next assay relates to HCT-116 colon. Put plainly: inhibition of tumour cell growth, NCI panel, 48 h.
In turn, `CS(=O)(=O)OCCn1c(=O)n(CCOS(C)(=O)=O)c(=O)n(CCOS(C)(=O)=O)c1=O` showed a TGI of more than 100 µM.

In the case of `c1ccc2c(c1)NC(C1OC3CCCN3C1C1Nc3ccccc3S1)S2` (stereo not given), the TGI is more than 100 µM.

For the compound `O=P(c1ccccc1)(c1ccccc1)N1O[C@@H](c2ccccc2)C=C[C@H]1c1ccccc1`, the TGI turned out to be 16.1 µM.

Consider `COc1nc(C#CCC(C)O)nc(OC)n1` (stereo not given), for which the TGI is 43.6 µM.

The compound `COC(=O)[C@]12CC[C@H]3CN(C(=O)OCc4ccccc4)[C@H]([C@H]31)[C@H](c1ccco1)N2S(=O)(=O)c1ccc(C)cc1` registered a TGI of 29.2 µM.

Compound `O=C1C[C@H](Sc2ccccc2)C2(OCCO2)[C@@H](Sc2ccccc2)C1` displayed a TGI of 4.81 µM.

Take `CCCNC(=O)CCC(C)[C@H]1CCC2C3C(C[C@H](OC(C)=O)[C@@]21C)[C@@]1(C)CCC2(C[C@H]1C[C@H]3OC(C)=O)OOC1(CCC(C)CC1)OO2` (stereo not given in full): the TGI was more than 100 µM.

In turn, `CCN(C(=S)N[C@@H](Cc1ccccc1)C(=O)N[C@@H](CC(C)C)C(=O)OC)c1ccccc1` displayed a TGI of more than 100 µM.

For `CCCn1c(CN(Cc2nc3ccccc3n2CCC)Cc2nc3ccccc3n2CCC)nc2ccccc21`, the TGI worked out at 13.6 µM.

The compound `CSc1c(C#N)c(N)n2c1C(=O)N(c1ccccc1)C2=S` displayed a TGI of more than 100 µM.

Take `NNC(=O)c1ccc[n+](CCc2ccccc2)c1`: the TGI was more than 100 µM.

Compound `COc1cc(NS(C)(=O)=O)ccc1N1Cc2cnc3ccc4[nH]c(C)cc1c4c23` gave a TGI of more than 100 µM.

Compound `CC12CC(=O)C3C(C(=O)C1)C32C` (stereo not given) yielded a TGI of more than 100 µM.

Compound `O=C1CN2C(c3ccccc3)=NN(c3ccc([N+](=O)[O-])cc3)C2(c2ccccc2)c2cc(Cl)ccc2N1CC1CC1` (stereo not given) showed a TGI of more than 100 µM.

In turn, `COc1ccc2cc3c4cc5c(cc4cc[n+]3cc2c1OC)OCO5` came in with a TGI of more than 100 µM.

Turning to `CCN(CCO)CC1COc2ccccc2O1` (stereo not given), the TGI is more than 100 µM.

Take `C/C(CC1C2CCCC1C2)=N\NC(N)=O` (stereo not given): the TGI is more than 100 µM.

In turn, `c1ccc2sc(SCSc3nc4ccccc4s3)nc2c1` gave a TGI of more than 100 µM.

For `O=c1oc(-c2ccc(O)c(O)c2)cc2cccc(O)c12`, the TGI is 23.7 µM.

`O=C1/C(=C\c2cccc(Oc3ccccc3)c2)S(=O)(=O)C(c2ccccc2)N1Cc1ccccc1` (stereo not given) came in with a TGI of more than 100 µM.

For the compound `O=[N+]([O-])/C(C(Cl)=C(Cl)Cl)=C(\Nc1cccc2cccnc12)SCc1ccccc1`, the TGI came out at 36.1 µM.

`COc1ccc(C#CC(=O)O)c(OC)c1` yielded a TGI of more than 100 µM.

`CCOC(=O)NC(=S)NN(C)C1=NCC(C)(C)S1`: the TGI was more than 100 µM.

The compound `Cc1cc2[nH]c3[nH]c(=O)[nH]c(=O)c3c2cc1C` showed a TGI of more than 100 µM.

`C/C=C/C=C/c1nc(C#N)c(N)o1` showed a TGI of more than 100 µM.

`CC(C)COP(=O)(OCC(C)C)C(NS(=O)(=O)c1ccccc1)(C(F)(F)F)C(F)(F)F`: the TGI amounted to 21.7 µM.

For `CC(O)C1CC1(CO)CNc1cc(Cl)nc(N)n1` (stereo not given), the TGI is more than 100 µM.

A further assay concerns ACHN renal. Put plainly: inhibition of tumour cell growth, NCI panel, 48 h.
`CS(=O)(=O)OCCn1c(=O)n(CCOS(C)(=O)=O)c(=O)n(CCOS(C)(=O)=O)c1=O` registered a TGI of more than 100 µM.

For `c1ccc2c(c1)NC(C1OC3CCCN3C1C1Nc3ccccc3S1)S2` (stereo not given), the TGI is more than 100 µM.

`O=P(c1ccccc1)(c1ccccc1)N1O[C@@H](c2ccccc2)C=C[C@H]1c1ccccc1`: the TGI came to 21.9 µM.

`COc1nc(C#CCC(C)O)nc(OC)n1` (stereo not given): the TGI amounted to 33.3 µM.

The compound `COC(=O)[C@]12CC[C@H]3CN(C(=O)OCc4ccccc4)[C@H]([C@H]31)[C@H](c1ccco1)N2S(=O)(=O)c1ccc(C)cc1` came in with a TGI of more than 100 µM.

On to `O=C1C[C@H](Sc2ccccc2)C2(OCCO2)[C@@H](Sc2ccccc2)C1`, for which the TGI is 5.62 µM.

Take `CCCNC(=O)CCC(C)[C@H]1CCC2C3C(C[C@H](OC(C)=O)[C@@]21C)[C@@]1(C)CCC2(C[C@H]1C[C@H]3OC(C)=O)OOC1(CCC(C)CC1)OO2` (stereo not given in full): the TGI was found to be 4.08 µM.

In turn, `CCN(C(=S)N[C@@H](Cc1ccccc1)C(=O)N[C@@H](CC(C)C)C(=O)OC)c1ccccc1` came in with a TGI of more than 100 µM.

The compound `CCCn1c(CN(Cc2nc3ccccc3n2CCC)Cc2nc3ccccc3n2CCC)nc2ccccc21` came in with a TGI of more than 100 µM.

`CSc1c(C#N)c(N)n2c1C(=O)N(c1ccccc1)C2=S` yielded a TGI of more than 100 µM.

Turning to `NNC(=O)c1ccc[n+](CCc2ccccc2)c1`, the TGI was more than 100 µM.

`COc1cc(NS(C)(=O)=O)ccc1N1Cc2cnc3ccc4[nH]c(C)cc1c4c23`: the TGI was more than 100 µM.

`CC12CC(=O)C3C(C(=O)C1)C32C` (stereo not given) registered a TGI of more than 100 µM.

In the case of `O=C1CN2C(c3ccccc3)=NN(c3ccc([N+](=O)[O-])cc3)C2(c2ccccc2)c2cc(Cl)ccc2N1CC1CC1` (stereo not given), the TGI is more than 100 µM.

Compound `COc1ccc2cc3c4cc5c(cc4cc[n+]3cc2c1OC)OCO5` yielded a TGI of more than 100 µM.

On to `CCN(CCO)CC1COc2ccccc2O1` (stereo not given), for which the TGI was more than 100 µM.

As for `C/C(CC1C2CCCC1C2)=N\NC(N)=O` (stereo not given), the TGI was more than 100 µM.

Regarding `c1ccc2sc(SCSc3nc4ccccc4s3)nc2c1`, the TGI was more than 100 µM.

For `O=c1oc(-c2ccc(O)c(O)c2)cc2cccc(O)c12`, the TGI was more than 81.7 µM.

As for `O=C1/C(=C\c2cccc(Oc3ccccc3)c2)S(=O)(=O)C(c2ccccc2)N1Cc1ccccc1` (stereo not given), the TGI came to 49.4 µM.

`O=[N+]([O-])/C(C(Cl)=C(Cl)Cl)=C(\Nc1cccc2cccnc12)SCc1ccccc1` registered a TGI of 64.4 µM.

The compound `COc1ccc(C#CC(=O)O)c(OC)c1` yielded a TGI of more than 100 µM.

On to `CCOC(=O)NC(=S)NN(C)C1=NCC(C)(C)S1`, for which the TGI is more than 100 µM.

In the case of `Cc1cc2[nH]c3[nH]c(=O)[nH]c(=O)c3c2cc1C`, the TGI is more than 100 µM.

`C/C=C/C=C/c1nc(C#N)c(N)o1` registered a TGI of more than 100 µM.

Compound `CC(C)COP(=O)(OCC(C)C)C(NS(=O)(=O)c1ccccc1)(C(F)(F)F)C(F)(F)F` had a TGI of 10.2 µM.

For the compound `CC(O)C1CC1(CO)CNc1cc(Cl)nc(N)n1` (stereo not given), the TGI was more than 100 µM.

The test system of a further assay is NCI-H460 lung. The experiment in a line: inhibition of tumour cell growth, NCI panel, 48 h.
In turn, `CS(=O)(=O)OCCn1c(=O)n(CCOS(C)(=O)=O)c(=O)n(CCOS(C)(=O)=O)c1=O` registered a TGI of more than 100 µM.
